Test results reported in ChEMBL document CHEMBL5523757, “Discovery, Synthesis, and Activity Evaluation of Novel Five-Membered Sulfur-Containing Heterocyclic Nucleosides as Potential Anticancer Agents In Vitro and In Vivo” (J Med Chem, 2024).
The source made the active and inactive calls. No cut-off for these calls is given here.

Assays:
HeLa [1] = experiment: Induction of autophagy in human HeLa cells assessed as upregulation of LC3 expression at 2 to 8 uM incubated for 48 hrs by Western blot analysis; type: functional, cell-based; settings: dose 2-8 µM
HeLa [2] = experiment: Induction of autophagy in human HeLa cells assessed as downregulation of PI3K phosphorylation at 2 to 8 uM incubated for 48 hrs by Western blot analysis; type: functional, cell-based; settings: dose 2-8 µM
HeLa [3] = experiment: Induction of autophagy in human HeLa cells with siRNA-mediated RPS6 knockdown assessed as upregulation of LC3 expression at 4 uM incubated for 48 hrs by Western blot analysis; type: functional, cell-based
HeLa [4] = experiment: Induction of endoplasmic reticulum (ER) stress in human HeLa cells assessed as increase in red fluorescence intensity at 2 to 8 uM incubated for 48 hrs by ER-tracker red dye based fluorescence microscopic analysis; type: functional, cell-based; settings: dose 2-8 µM
HeLa [5] = experiment: Induction of autophagy in human HeLa cells assessed as increase in number of autophagosomes incubated for 48 hrs by transmission electron microscopic analysis; type: functional, cell-based
HeLa [6] = experiment: Induction of cell cycle arrest in human HeLa cells at 2 to 8 uM; type: functional, cell-based; settings: dose 2-8 µM
Cell membrane [7] = experiment: Disruption of mitochondrial membrane in human HeLa cells assessed as decrease in fluorescence intensity at 2 to 8 uM incubated for 48 hrs by mito-tracker green dye based fluorescence microscopic analysis; type: cell membranes; settings: dose 2-8 µM
HeLa [8] = experiment: Induction of autophagy in human HeLa cells assessed as downregulation of mTOR phosphorylation at 2 to 8 uM incubated for 48 hrs by Western blot analysis; type: functional, cell-based; settings: dose 2-8 µM
Cell membrane [9] = experiment: Disruption of lysosomal membrane in human HeLa cells assessed as decrease in fluorescence intensity at 2 to 8 uM incubated for 48 hrs by lyso-tracker red dye based fluorescence microscopic analysis; type: cell membranes; settings: dose 2-8 µM
HeLa [10] = experiment: Induction of apoptosis in human HeLa cells assessed as upregulation of cleaved caspase-3 expression incubated for 48 hrs by Western blot analysis; type: functional, cell-based
HeLa [11] = experiment: Induction of autophagy in human HeLa cells assessed as downregulation of SQSTM1/p62 expression at 2 to 8 uM incubated for 48 hrs by Western blot analysis; type: functional, cell-based; settings: dose 2-8 µM
Cell membrane [12] = experiment: Induction of mitochondrial membrane potential loss in human HeLa cells assessed as decrease in red fluorescence at 2 to 8 uM incubated for 48 hrs by JC-1 staining based flow cytometry; settings: dose 2-8 µM
HeLa [13] = experiment: Induction of autophagy in human HeLa cells with siRNA-mediated RPS6 knockdown assessed as downregulation of SQSTM1/p62 expression at 4 uM incubated for 48 hrs by Western blot analysis; type: functional, cell-based
HeLa [14] = experiment: Induction of apoptosis in human HeLa cells assessed as upregulation of Bax expression incubated for 48 hrs by Western blot analysis; type: functional, cell-based
HeLa [15] = experiment: Induction of apoptosis in human HeLa cells assessed as upregulation of cleaved PARP expression incubated for 48 hrs by Western blot analysis; type: functional, cell-based
HeLa [16] = experiment: Induction of autophagy in human HeLa cells assessed as upregulation of Beclin-1 expression at 2 to 8 uM incubated for 48 hrs by Western blot analysis; type: functional, cell-based; settings: dose 2-8 µM
HeLa [17] = experiment: Inhibition of colony formation in human HeLa cells at 2 to 8 uM incubated for 2 weeks by crystal violet staining based microscopic analysis; type: functional, cell-based; settings: dose 2-8 µM
[18] = biological target: Small ribosomal subunit protein eS6 (Homo sapiens) (UniProt P62753); experiment: Inhibition of RPS6 in human HeLa cells assessed as downregulation of RPS6 phosphorylation at 2 to 8 uM incubated for 48 hrs by Western blot analysis; type: cell-based; settings: dose 2-8 µM
HeLa [19] = experiment: Induction of apoptosis in human HeLa cells assessed as upregulation of p53 expression incubated for 48 hrs by Western blot analysis; type: functional, cell-based
HeLa [20] = experiment: Induction of autophagy in human HeLa cells assessed as downregulation of PI3K expression at 2 to 8 uM incubated for 48 hrs by Western blot analysis; type: functional, cell-based; settings: dose 2-8 µM
HeLa [21] = experiment: Induction of autophagy in human HeLa cells assessed as downregulation of mTOR expression at 2 to 8 uM incubated for 48 hrs by Western blot analysis; type: functional, cell-based; settings: dose 2-8 µM
HeLa [22] = experiment: Induction of autophagy in human HeLa cells with siRNA-mediated RPS6 knockdown assessed as upregulation of Beclin-1 expression at 4 uM incubated for 48 hrs by Western blot analysis; type: functional, cell-based
HeLa [23] = experiment: Induction of autophagy in human HeLa cells assessed as upregulation of Beclin-1 expression incubated for 48 hrs by immunofluorescence assay; type: functional, cell-based
HeLa [24] = experiment: Antitumor activity against human HeLa cells xenografted in BALB/c mouse assessed as necrotic cells in tumor at 15 to 60 mg/kg,ip once daily for 14 days; type: functional, organism-based; settings: dose 15-60 mg/kg, time 14.0 day
[25] = biological target: Small ribosomal subunit protein eS6 (Homo sapiens) (UniProt P62753); experiment: Binding affinity to RPS6 in human HeLa cells assessed as stabilization of protein at 100 uM at 70 degreeC by cellular thermal shift assay; type: cell-based
HeLa [26] = experiment: Inhibition of cell invasion in human HeLa cells at 2 to 8 uM incubated for 48 hrs by crystal violet staining based transwell invasion assay; type: functional; settings: dose 2-8 µM
[27] = biological target: Small ribosomal subunit protein eS6 (Homo sapiens) (UniProt P62753); experiment: Binding affinity to RPS6 in human HeLa cells assessed as increase in protein abundance in presence of pronase by DARTS assay; type: cell-based
HeLa [28] = experiment: Induction of autophagy in human HeLa cells assessed as increase in number of MDC-positive cells incubated for 48 hrs by MDC staining based fluorescence microscopic analysis; type: functional, cell-based
HeLa [29] = experiment: Antitumor activity against human HeLa cells xenografted in BALB/c mouse assessed as reduction in tumor weight at 15 to 60 mg/kg,ip once daily for 14 days; type: functional, organism-based; settings: dose 15-60 mg/kg, time 14.0 day
HeLa [30] = experiment: Induction of autophagy in human HeLa cells assessed as upregulation of LC3 expression incubated for 48 hrs by immunofluorescence assay; type: functional, cell-based
HeLa [31] = experiment: Induction of autophagy in human HeLa cells assessed as downregulation of AKT expression at 2 to 8 uM incubated for 48 hrs by Western blot analysis; type: functional, cell-based; settings: dose 2-8 µM
HeLa [32] = experiment: Inhibition of cell migration in human HeLa cells incubated for 48 hrs by scratch wound healing assay; type: functional, cell-based
HeLa [33] = experiment: Induction of autophagy in human HeLa cells assessed as downregulation of AKT phosphorylation at 2 to 8 uM incubated for 48 hrs by Western blot analysis; type: functional, cell-based; settings: dose 2-8 µM
[34] = biological target: Small ribosomal subunit protein eS6 (Homo sapiens) (UniProt P62753); experiment: Inhibition of RPS6 in human HeLa cells assessed as downregulation of RPS6 expression at 2 to 8 uM incubated for 48 hrs by Western blot analysis; type: cell-based; settings: dose 2-8 µM
Cell membrane [35] = experiment: Induction of mitochondrial membrane potential loss in human HeLa cells assessed as increase in green fluorescence at 2 to 8 uM incubated for 48 hrs by JC-1 staining based flow cytometry; settings: dose 2-8 µM
HeLa [36] = experiment: Antitumor activity against human HeLa cells xenografted in BALB/c mouse assessed as reduction in tumor volume at 15 to 60 mg/kg,ip once daily for 14 days; type: functional, organism-based; settings: dose 15-60 mg/kg, time 14.0 day

**Q.** What does the source list for `CCOC(=O)C[C@H]1CSC[C@]1(C(=O)OCC)n1cnc2c(Cl)nc(Cl)nc21` (racemic)?
**A.** Activity (HeLa [1]): Active; Activity (HeLa [2]): Active; Activity (HeLa [3]): Active; Activity (HeLa [4]): Active; Activity (HeLa [5]): Dose-Dependent Effect; Activity (HeLa [6]): inactive; Activity (Cell membrane [7]): Active; Activity (HeLa [8]): Active; Activity (Cell membrane [9]): Active; Activity (HeLa [10]): Dose-Dependent Effect; Activity (HeLa [11]): Active; Activity (Cell membrane [12]): Active; Activity (HeLa [13]): Active; Activity (HeLa [14]): Dose-Dependent Effect; Activity (HeLa [15]): Dose-Dependent Effect; Activity (HeLa [16]): Active; inhibition (HeLa [17]): Active; inhibition [18]: Active; Activity (HeLa [19]): Dose-Dependent Effect; Activity (HeLa [20]): Active; Activity (HeLa [21]): Active; Activity (HeLa [22]): Active; Activity (HeLa [23]): Active; Activity (HeLa [24]): Active; Activity [25]: Active; inhibition (HeLa [26]): Active; Activity [27]: Active; Activity (HeLa [28]): Dose-Dependent Effect; Activity (HeLa [29]): Active; Activity (HeLa [30]): Active; Activity (HeLa [31]): Active; inhibition (HeLa [32]): Dose-Dependent Effect; Activity (HeLa [33]): Active; inhibition [34]: Active; Activity (Cell membrane [35]): Active; Activity (HeLa [36]): Active
